Measurements taken from patent publication US8084467B2, “Pyrazole derivatives as cannabinoid receptor antagonists” (University of Connecticut, priority 2004, dated 2011).
Like-named read-outs stand apart in the source and are kept apart here.

Columns and labels:
[1] = biological target: T1, CB2 receptor (Mus musculus, UniProt P47936); test: CB2 receptor binding, mouse spleen membranes, same manner as the CB1 binding assay; settings: for Ki: [3H] CP-55,940
T1 construct: membranes were prepared from frozen mouse spleen; from tissue; host or cells: mouse spleen
T1 sequence (P47936 whole entry): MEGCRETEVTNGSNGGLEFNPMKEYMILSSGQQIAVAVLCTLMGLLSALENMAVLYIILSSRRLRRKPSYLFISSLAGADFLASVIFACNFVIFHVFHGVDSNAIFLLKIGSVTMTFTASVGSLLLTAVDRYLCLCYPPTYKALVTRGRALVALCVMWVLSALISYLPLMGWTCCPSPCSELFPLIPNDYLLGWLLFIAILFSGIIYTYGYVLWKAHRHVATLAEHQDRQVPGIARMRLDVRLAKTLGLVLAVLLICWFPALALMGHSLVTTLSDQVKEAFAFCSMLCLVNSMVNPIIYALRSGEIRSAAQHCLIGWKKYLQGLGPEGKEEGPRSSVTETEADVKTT
Procedure: Some of the inventive analogs were tested for CB2 receptor binding affinity and for CB1 receptor affinity (to determine selectivity). […] The lower the Ki value the higher the binding affinity.
(§1) The treated membranes were subsequently used in the binding assay described below. Approximately 30 μg of membranes were incubated in silanized 96-well microtiter plate with TME containing 0.1% essentially fatty acid-free bovine serum albumin (BSA), 0.8 nM [^3H] […] Radioactivity was detected using MicroScint 20 scintillation cocktail added directly to the dried filterplates, and the filterplates were counted using a Packard Instruments Top-Count. […] Data collected from three independent experiments performed with duplicate determinations was normalized between 100% and 0% specific binding for [^3H] […] The normalized data was analyzed using a 4-parameter nonlinear logistic equation to yield IC50 values.
Silanized centrifuge tubes were used throughout to minimize receptor loss due to adsorption. The CB2 binding assay was conducted in the same manner as for the CB1 binding assay. The binding affinities (Ki) were also expressed in nanomoles (nM).

[2] = biological target: T2, CB1 cannabinoid receptor (Rattus norvegicus, UniProt P20272); test: CB1 receptor binding, rat forebrain membranes, [3H] CP-55,940 displacement; settings: for Ki: 0.8 nM [3H] CP-55,940
T2 construct: membranes were prepared from rat forebrain membranes; from tissue; host or cells: rat forebrain
T2 sequence (P20272 whole entry): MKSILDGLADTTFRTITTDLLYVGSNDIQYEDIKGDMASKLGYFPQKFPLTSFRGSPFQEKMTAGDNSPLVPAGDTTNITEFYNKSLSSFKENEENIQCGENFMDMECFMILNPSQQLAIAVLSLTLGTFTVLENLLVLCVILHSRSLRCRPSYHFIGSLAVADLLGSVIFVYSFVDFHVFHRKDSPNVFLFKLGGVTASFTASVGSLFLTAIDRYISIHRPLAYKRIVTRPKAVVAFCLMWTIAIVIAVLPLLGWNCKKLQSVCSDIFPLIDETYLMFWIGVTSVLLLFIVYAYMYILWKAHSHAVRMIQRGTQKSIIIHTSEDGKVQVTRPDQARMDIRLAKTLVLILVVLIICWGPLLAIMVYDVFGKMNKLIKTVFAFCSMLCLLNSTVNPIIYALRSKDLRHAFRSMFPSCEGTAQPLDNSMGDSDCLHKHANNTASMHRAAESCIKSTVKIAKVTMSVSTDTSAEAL
Procedure: Some of the inventive analogs were tested for CB2 receptor binding affinity and for CB1 receptor affinity (to determine selectivity). […] The lower the Ki value the higher the binding affinity. […]
Membranes, previously frozen at −80° C., were thawed on ice. To the stirred suspension was added three volumes of TME (25 mM Tris-HCl buffer, 5 mM MgCl2 and 1 mM EDTA) at a pH 7.4. The suspension was incubated at 4° C. for 30 min. At the end of the incubation, the membranes were pelleted and washed three times with TME.
as §1

[3] = mouse spleen membranes, read-out: affinities Ki CB2
[4] = rat forebrain membranes, read-out: affinities Ki CB1
[5] = affinities Ki CB2, mouse spleen membranes
[6] = affinities Ki CB1, rat forebrain membranes

Ki [1, 3] [nM]	Ki [2, 4] [nM]	selectivity CB1 ([2]; ratio of CB2 Ki to CB1 Ki)	selectivity CB2 ([1]; ratio of CB1 Ki to CB2 Ki)	SMILES	selectivity CB1 [2]	Ki [1, 5] [nM]	Ki [2, 6] [nM]
741	1.5	491		Cc1c(C(=O)NN2CCCCC2)nn(-c2ccc(Cl)cc2Cl)c1-c1ccc(-c2cccc(Cl)c2)cc1 [Compound 1-1]			
1590	5.8	274		Cc1c(C(=O)NN2CCCCC2)nn(-c2ccc(Cl)cc2Cl)c1-c1ccc(-c2ccc(Cl)cc2)cc1 [Compound 1-2]			
1370	85.1	16		Cc1c(C(=O)NN2CCCCC2)nn(-c2ccc(Cl)cc2Cl)c1-c1ccc(-c2ccccc2Cl)cc1 [Compound 1-3]			
1330	11.2	118		Cc1c(C(=O)NN2CCCCC2)nn(-c2ccc(Cl)cc2Cl)c1-c1ccc(-c2cccnc2)cc1 [Compound 1-4]			
1930	15.1	128		O=C(NN1CCCCC1)c1nn(-c2ccc(Cl)cc2Cl)c(-c2ccc(-c3cccnc3)cc2)c1CF [Compound 1-6]			
495	4	124		COCc1c(C(=O)NC2CCCCC2)nn(-c2ccc(Cl)cc2Cl)c1-c1ccc(Br)cc1 [Compound 1-9]			
842	54	16		CCOCc1c(C(=O)NC2CCCCC2)nn(-c2ccc(Cl)cc2Cl)c1-c1ccc(Br)cc1 [Compound 1-10]			
47500	105	452		CCOCc1c(C(=O)NC23CC4CC(CC(C4)C2)C3)nn(-c2ccc(Cl)cc2Cl)c1-c1ccc(Br)cc1 [Compound 1-11]			
490	46	11		CCOCc1c(C(=O)NN2CCCCC2)nn(-c2ccc(Cl)cc2Cl)c1-c1ccc(Br)cc1 [Compound 1-12]			
54	15	3.6		COCOCc1c(C(=O)NC2CCCCC2)nn(-c2ccc(Cl)cc2Cl)c1-c1ccc(Br)cc1 [Compound 1-13]			
397	172	2.3		CNCc1c(C(=O)NC2CCCCC2)nn(-c2ccc(Cl)cc2Cl)c1-c1ccc(Br)cc1 [Compound 1-15]			
140	24	5.8		CN(C)CCOCc1c(C(=O)NC2CCCCC2)nn(-c2ccc(Cl)cc2Cl)c1-c1ccc(Br)cc1 [Compound 1-16]			
968	241	4.0		COCc1c(C(=O)NC2CCCCC2)nn(-c2ccc(Cl)cc2Cl)c1-c1ccc(-c2ccsc2)cc1 [Compound 1-17]			
646	62	10.4		COCc1c(C(=O)NC2CCCCC2)nn(-c2ccc(Cl)cc2Cl)c1-c1ccc(-c2cccnc2)cc1 [Compound 1-18]			
2980	160	18.6		COCc1c(C(=O)NC2CCCCC2)nn(-c2ccc(Cl)cc2Cl)c1-c1ccc(-c2ccncc2)cc1 [Compound 1-19]			
277	51	5.4		COCc1c(C(=O)NC2CCCCC2)nn(-c2ccc(Cl)cc2Cl)c1-c1ccc(-c2ccccn2)cc1 [Compound 1-20]			

Ki [1, 3] [nM]	Ki [2, 4] [nM]	selectivity CB1 ([2]; ratio of CB2 Ki to CB1 Ki)	selectivity CB2 ([1]; ratio of CB1 Ki to CB2 Ki)	SMILES	selectivity CB1 [2]	Ki [1, 5] [nM]	Ki [2, 6] [nM]
675	15	45		COCc1c(C(=O)NC2CCCCC2)nn(-c2ccc(Cl)cc2Cl)c1-c1ccc(I)cc1 [Compound 1-22]			
16400	331	49.6		Cc1c(C=Cc2ccccc2)nn(-c2ccc(Cl)cc2Cl)c1-c1ccc(Br)cc1 [Compound 1-23]			
10600	141	75.0		Cc1c(C=Cc2ccccc2)nn(-c2ccc(Cl)cc2Cl)c1-c1ccc(Br)cc1 [Compound 1-24]			
4010	17700		4.4	Cc1c(C=CC23CC4CC(CC(C4)C2)C3)nn(-c2ccc(Cl)cc2Cl)c1-c1ccc(Br)cc1 [Compound 1-25]			
26400	1040	25.3		Cc1c(CCC2CCCCC2)nn(-c2ccc(Cl)cc2Cl)c1-c1ccc(Br)cc1 [Compound 1-27]			
702	455	1.5		Cc1c(C(=O)NN2CCCCC2)nn(-c2ccc(Cl)cc2Cl)c1-c1ccc(-c2nnn[nH]2)cc1 [Compound 2-1]			
242	90	2.7		Cc1c(C(=O)NN2CCCCC2)nn(-c2ccc(Cl)cc2Cl)c1-c1ccc(-c2nnnn2C)cc1 [Compound 2-2]			
517	6	86.2		Cc1c(C(=O)NN2CCCCC2)nn(-c2ccc(Cl)cc2Cl)c1-c1ccc(-c2nnn(C)n2)cc1 [Compound 2-3]			
13600	1840	7.4		O=C(NN1CCCCC1)c1nn(-c2ccc(Cl)cc2Cl)c(-c2ccc(-c3nnn[nH]3)cc2)c1CO [Compound 2-4]			
2130	203	10.5		Cn1nnnc1-c1ccc(-c2c(CO)c(C(=O)NN3CCCCC3)nn2-c2ccc(Cl)cc2Cl)cc1 [Compound 2-5]			
2170	18	120.5		Cn1nnc(-c2ccc(-c3c(CO)c(C(=O)NN4CCCCC4)nn3-c3ccc(Cl)cc3Cl)cc2)n1 [Compound 2-6]			
1070	120	8.9		Cc1c(C(=O)NC2CCCCC2)nn(-c2ccc(Cl)cc2Cl)c1-c1ccc(-c2nnnn2C)cc1 [Compound 2-8]			
381	20	19		Cc1c(C(=O)NC2CCCCC2)nn(-c2ccc(Cl)cc2Cl)c1-c1ccc(-c2nnn(C)n2)cc1 [Compound 2-9]			
463	192	2.4		O=C(NC1CCCCC1)c1nn(-c2ccc(Cl)cc2Cl)c(-c2ccc(-c3nnn[nH]3)cc2)c1CO [Compound 2-10]			
122	118	1		Cn1nnnc1-c1ccc(-c2c(CO)c(C(=O)NC3CCCCC3)nn2-c2ccc(Cl)cc2Cl)cc1 [Compound 2-11]			
36.5	37	1		Cn1nnc(-c2ccc(-c3c(CO)c(C(=O)NC4CCCCC4)nn3-c3ccc(Cl)cc3Cl)cc2)n1 [Compound 2-12]			

SMILES	Ki [1, 3] [nM]	Ki [2, 4] [nM]	selectivity CB1 ([2]; ratio of CB2 Ki to CB1 Ki)	selectivity CB2 ([1]; ratio of CB1 Ki to CB2 Ki)	selectivity CB1 [2]	Ki [1, 5] [nM]	Ki [2, 6] [nM]
COCc1c(C(=O)NC23CC4CC(CC(C4)C2)C3)nn(-c2ccc(Cl)cc2Cl)c1-c1ccc(Br)cc1 [Compound 1-7]	1680	53			32		
COCc1c(C(=O)NN2CCCCC2)nn(-c2ccc(Cl)cc2Cl)c1-c1ccc(Br)cc1 [Compound 1-8]			31			561	19
COCOCc1c(C(=O)N2CCCCC2)nn(-c2ccc(Cl)cc2Cl)c1-c1ccc(Br)cc1 [Compound 1-14]		395	7.8			3100	
CCCCCC=Cc1nn(-c2ccc(Cl)cc2Cl)c(-c2ccc(Br)cc2)c1C [Compound 1-26]		7680	6.9			52900	
Cc1c(C(O)C(O)c2ccccc2)nn(-c2ccc(Cl)cc2Cl)c1-c1ccc(Br)cc1 (stereo not drawn) [Compound 1-28]		1070	3.7			3930	
COCc1c(C(=O)N(C)C2CCCCC2)nn(-c2ccc(Cl)cc2Cl)c1-c1ccc(Br)cc1 [Compound 1-29]			7.5			2040	273
